The values that follow are results of earlier work, collected in patent publication US5716935A, “Use of antiotensin II analogs in tissue repair” (University of Southern California, priority 1996, dated 1998).

One data set concerns aminopeptidase. As to conditions: reported in literature.
In a further data set the test system is wound tissue. As to conditions: applied to wound tissue; U.S. Pat. No. 5,015,629.

Turning to `CC[C@H](C)[C@H](NC(=O)[C@H](Cc1ccc(O)cc1)NC(=O)[C@@H](NC(=O)[C@H](CCCNC(=N)N)NC(=O)CNC)C(C)C)C(=O)N[C@@H](Cc1cnc[nH]1)C(=O)N1CCC[C@H]1C(=O)N[C@@H](Cc1ccccc1)C(=O)O` [Analog 4, Sar-Arg-Val-Tyr-Ile-His-Pro-Phe], in the data set on aminopeptidase, the cleavage by aminopeptidase entry is “resistant”.
As to “Asp-Arg-Val-Tyr-Ile-His-Pro-Phe [angiotensin II, octapeptide present in humans and other species; known pressor agent]”, the “rate of wound healing” value in the data set on wound tissue was “significantly increases”.
